Data from patent US4820698A, “Antimicrobial agents and process for their manufacture” (The Procter & Gamble Company, priority 1986, dated 1989).
Converted amounts (≈) assume the structure as drawn. Where two headings read alike, the source gives them in different places.

Legend:
Assay type in all cases: cell-based
[1] = system: S. Aureus (G+) ATCC 12715; assay: In vitro antibacterial activity, standard microdilution MIC assay; details: S. Aureus (G+) ATCC 12715, penicillin resistant
[2] = system: S. Aureus (G+) ATCC 27660; assay: as above; details: S. Aureus (G+) ATCC 27660, penicillin resistant
[3] = system: S. Aureus (G+) ATCC 25923; assay: as above
[4] = system: P. Aeruginosa (G-) ATCC 27853; assay: as above; details: P. Aeruginosa (G-) ATCC 27853, penicillin resistant
[5] = system: Klebsiella (G-) Pneumoniae ATCC; assay: as above
Procedure: The in vitro antibacterial activity of several tetraalkyl ethenylidenebisphosphonates, fosfomycin and Penicillin G were tested against various gram-positive and gram-negative bacteria using the standard microdilution Minimum Inhibitory Concentration (MIC) assay as disclosed in Laboratory Procedures in Clinical Microbiology (John A. Washington, editor), 281-311 (1985), incorporated herein by reference.

[6] = system: Clostridium (G+) perfringens ATCC 3624; assay: microbe, parasite or virus in culture
[7] = system: Streptococcus (G+) mutans, clinical isolate (first listed); assay: In vitro antibacterial activity, standard microdilution MIC assay
[8] = system: Streptococcus (G+) mutans, clinical isolate (second listed); assay: as above
[9] = system: Streptococcus (G+) mutans, clinical isolate (third listed); assay: as above
[10] = system: gram-positive microorganisms; assay: In vitro antibacterial activity (MIC), comparison with fosfomycin
[11] = Staphylococcus aureus, ATCC12715, read-out: MIC
[12] = Staphylococcus aureus, ATCC27660, read-out: MIC
[13] = Staphylococcus aureus, ATCC25923, read-out: MIC
[14] = Pseudomonas aeruginosa, ATCC27853, read-out: MIC

| SMILES | MIC [1] | MIC [2] | MIC [3] | MIC [4] | MIC [5] | MIC [6] | MIC ([6]; Clostridium, ATCC3624) | MIC [1, 11] | MIC [2, 12] | MIC [3, 13] | MIC [4, 14] | MIC [7] | MIC [8] | MIC [9] | antibacterial efficacy against gram-positive microorganisms compared with fosfomycin [10] |
| --- | --- | --- | --- | --- | --- | --- | --- | --- | --- | --- | --- | --- | --- | --- | --- |
| C=C(P(=O)(OC)OC)P(=O)(OC)OC [A, Tetramethyl ethenylidenebisphosphonate] | 1,200 μg/ml | 1,200 μg/ml | 430 µg/mL (≈ 1760 µM) | 6,300 μg/ml | 405 µg/mL (≈ 1660 µM) | – | – | – | – | – | – | – | – | – | – |
| C=C(P(=O)(OCC)OCC)P(=O)(OCC)OCC [B, Tetraethyl ethenylidenebisphosphonate] | 180 µg/mL (≈ 600 µM) | 160 µg/mL (≈ 533 µM) | 110 µg/mL (≈ 366 µM) | 25,000 μg/ml | – | 52 µg/mL (≈ 173 µM) | – | – | – | – | – | – | – | – | – |
| C=C(P(=O)(OCCCC)OCCCC)P(=O)(OCCCC)OCCCC [C, Tetrabutyl ethenylidenebisphosphonate] | – | – | – | – | – | – | 2.1 µg/mL (≈ 5.09 µM) | 6.5 µg/mL (≈ 15.8 µM) | 6.5 µg/mL (≈ 15.8 µM) | 4.5 µg/mL (≈ 10.9 µM) | 25000 µg/mL (≈ 60600 µM) | 1.2 µg/mL (≈ 2.91 µM) | 11 µg/mL (≈ 26.7 µM) | 11 µg/mL (≈ 26.7 µM) | superior to fosfomycin |
| C[C@@H]1O[C@@H]1P(=O)(O)O [D, Fosfomycin, reference compound] | – | – | – | – | – | – | – | 72 µg/mL (≈ 522 µM) | 180 µg/mL (≈ 1300 µM) | 56 µg/mL (≈ 406 µM) | 31 µg/mL (≈ 225 µM) | – | – | – | – |
| CC1(C)S[C@@H]2[C@H](NC(=O)Cc3ccccc3)C(=O)N2[C@H]1C(=O)O [E, Penicillin G, reference compound] | – | – | – | – | – | – | – | 19000 µg/mL (≈ 56800 µM) | 25000 µg/mL (≈ 74800 µM) | 25 µg/mL (≈ 74.8 µM) | 24000 µg/mL (≈ 71800 µM) | – | – | – | – |
